What was measured:
[1] = test system: human lung cancer cell line A549; experiment: In vitro tumor cell proliferation inhibition assay (SRB method), A549; format: cell-based; conditions: 72 hours; for inhibition at 10 µM: test compounds 10 μM; for inhibition at 10 µM / IC50: SRB; for IC50: mean of triplicate experiments, read-out: IC50 against A549
Protocol: (§1) Sulforhodamine B Colorimetric Method (SRB Method) and MTT Colorimetric Method (MTT Method)
(§2) Human lung cancer cell line A549, human liver cancer cell line HepG2, human colon cancer cell line HCT116, human colon cancer cell line HT-29, human leukemia cell line K562, human cervical cancer cell line hela, and human breast cancer cell line MCF-7, all provided by the Shanghai Cell Bank, Chinese Academy of Sciences.
(§3) A549, HepG2, HCT116, HT-29, K562, hela, and MCF-7 cells were cultured respectively in 1640, DMEM, 5A, 5A, 1640, DMEM, and 1640 culture media containing 10 wt % heat-inactivated FBS (fetal bovine serum), 2 mM L-glutamine, 100 U/mL penicillin and […] streptomycin, in a cell incubator at 37° C. and 5 vol % CO2. The medium was replaced every two days. After the A549, HepG2, HCT116, HT-29, hela, and MCF-7 cells were confluent, they were digested with 0.05% (w/v) trypsin-EDTA at 37° C., passaged, and maintained in the logarithmic growth phase suitable for testing. The K562 suspension cells were passaged without digestion, and maintained in the logarithmic growth phase suitable for testing. The A549, HepG2, HCT116, HT-29, K562, hela, and MCF-7 cells in the logarithmic growth phase were inoculated to 96-well plates at 5000, 5000, 5000, 5000, 6000, 5000, 5000 per well, respectively, and cultured at 37° C. for 24 h.
(§4) Then various concentrations of test samples were added. The positive control group was doxorubicin hydrochloride (final concentration was 1 μM), the solvent control group was an equal volume of DMSO, and the blank control group was an equal volume of a culture medium, with 4 replicate wells for each concentration. After the A549, HepG2, HCT116, HT-29, hela, and MCF-7 cells were treated with the test drugs for 72 hours, the cells in each well were fixed with 50% (m/v) cold trichloroacetic acid (TCA) and stained with SRB. Then […] of Tris solution was added, and the OD value at the wavelength of 540 nm was measured using a microplate reader. For K562 cells, after 72 hours of treatment with the test drugs, […] of 5 mg/mL MTT was added, and the cells were incubated at 37° C. for 4 hours. Next, […] of a triplet solution (10% SDS, 5% isobutanol, 12 mM HCl) was added, followed by further incubation for 12 to 20 hours. The OD value at the wavelength of 570 nm was measured using a microplate reader.
(§5) The tumor cell growth inhibition rate was calculated according to the following equation: […]
(§6) in the equation, • OD540 control well is the absorbance of the control group; • OD540 dosing well is the absorbance of the test group.
(§7) IC50 values of the test drugs (calculated by GraphPad Prism 5 software) were the means of the results of triplicate experiments.

[2] = test system: human liver cancer cell line HepG2; experiment: In vitro tumor cell proliferation inhibition assay (SRB method), HepG2; format: cell-based; conditions: 72 hours; for inhibition at 10 µM: test compounds 10 μM; for inhibition at 10 µM / IC50: SRB; for IC50: mean of triplicate experiments, read-out: IC50 against HepG2
Protocol: as §1, §2, §3, §4, §5, §6, §7

[3] = test system: human colon cancer cell line HCT116; experiment: In vitro tumor cell proliferation inhibition assay (SRB method), HCT116; format: cell-based; conditions: for inhibition at 10 µM: HCT-116, test compounds 10 μM; for inhibition at 10 µM / IC50: SRB; for IC50: HCT-116, 72 hours, mean of triplicate experiments, read-out: IC50 against HCT116
Protocol: as §1, §2, §3, §4, §5, §6, §7

[4] = test system: human colon cancer cell line HT-29; experiment: In vitro tumor cell proliferation inhibition assay (SRB method), HT-29; format: cell-based; conditions: 72 hours; for IC50: SRB, mean of triplicate experiments, read-out: IC50 against HT-29
Protocol: as §1, §2, §3, §4, §5, §6, §7

[5] = test system: human leukemia cell line K562; experiment: In vitro tumor cell proliferation inhibition assay (MTT method), K562; format: cell-based; conditions: 72 hours; for IC50: mean of triplicate experiments, read-out: IC50 against K562
Protocol: as §1, §2, §3, §4, §5, §6, §7

[6] = test system: human cervical cancer cell line hela; experiment: In vitro tumor cell proliferation inhibition assay (SRB method), hela; format: cell-based; conditions: 72 hours; for IC50: SRB, mean of triplicate experiments, read-out: IC50 against hela
Protocol: as §1, §2, §3, §4, §5, §6, §7

[7] = test system: human breast cancer cell line MCF-7; experiment: In vitro tumor cell proliferation inhibition assay (SRB method), MCF-7; format: cell-based; conditions: for IC50: MCF7, 72 hours, SRB, mean of triplicate experiments, read-out: IC50 against MCF-7
Protocol: as §1, §2, §3, §4, §5, §6, §7

[8] = test system: A549, HepG2, HCT116, HT-29, K562, hela, and MCF-7 cell lines; experiment: In vitro tumor cell proliferation inhibition assay, summary over all 7 types of cells; format: cell-based; conditions: Homo sapiens
Protocol: as §1, §2, §3, §4, §5, §6, §7

[9] = test system: A549 cells; experiment: A549 cell-BALB/c nude mouse subcutaneous tumor transplantation experiment; format: in vivo, BALB/c nude mice; conditions: A549 model, test compound 0.5 mg/mL at 10 mL/kg tail vein, 15 times, 6 times
Protocol: (§8) BALB/c nude mice were subcutaneously inoculated with A549, HCT116 and HT-29 cells to establish tumor transplantation models. • Solvent Control Group: 2% DMSO+normal saline+sodium carbonate (the molar ratio of the compound to sodium carbonate is 1:2) • 5-fluorouracil control group: 5-fluorouracil injection (20 mg/kg);
(§9) Test compound group: 1 mg of a test compound was fully dissolved in […] DMSO, and then diluted with normal saline to 0.5 mg/mL. 2 mL was used each time, freshly prepared before use on the same day.
(§10) Eight mice were in each group.
(§11) The solvent control group and the test compound group were administered at a dose of 10 mL/kg via tail vein injection (the dose for each administration was calculated based on the body weight on that day), 5 times a week, for a total of 15 times. The animals were euthanized after the last administration.
(§12) The 5-fluorouracil control group was administered twice a week for a total of 6 times.
(§13) The body weight and tumor diameter were measured twice a week during the administration period. Tumors and the spleen were removed and weighed after euthanasia. The tumor volume, relative tumor volume (RTV), relative tumor growth rate (T/C %), tumor volume inhibition rate (IRTV%), and tumor weight inhibition rate (IRTW%) were calculated. Data for animals that died accidentally were only listed but excluded from statistical analysis.

[10] = test system: HCT116 cells; experiment: HCT116 cell-BALB/c nude mouse subcutaneous tumor transplantation experiment; format: in vivo, BALB/c nude mice; conditions: HCT116 model; test compound 0.5 mg/mL at 10 mL/kg tail vein, 15 times; 5-fu 20 mg/kg, 6 times
Protocol: as §8, §9, §10, §11, §12, §13

[11] = read-out: Inhibition rate on A549
[12] = read-out: Inhibition rate on HepG2
[13] = 72 hours, read-out: Inhibition rate on HCT116
[14] = upper bound over A549, HepG2, HCT116, HT-29, K562, hela, MCF-7

Compound	inhibition at 10 µM [1, 11]	inhibition at 10 µM [2, 12]	inhibition at 10 µM [3, 13]	IC50 [1]	IC50 [2]	IC50 [3]	IC50 [4]	IC50 [5]	IC50 [6]	IC50 [7]	further results
C=CC(=O)NCc1cc(C(=O)OC)cc(O)c1O [Compound I-18]	10.5%	73%	22.5%								
C=CC(=O)NCc1cc(CNC(=O)C=C)c(O)c(C(C)=O)c1O [Compound I-15]	7.05%	33.5%	27.7%								
COC(=O)c1cc(O)c(O)c(O)c1CNC(=O)c1ccccc1 [Compound I-14, N-(2,3,4-trihydroxy-6-carbomethoxy-benzyl) benzamide]	37.7%	1.56%	34.1%								
CCCOC(=O)c1cc(O)c(O)c(O)c1CNC(=O)CCl [Compound I-13, N-(2,3,4-trihydroxy-6-propoxycarbonyl-benzyl) chloroacetamide]	29.6%	55%	37.8%								
CCCOC(=O)c1cc(O)c(O)c(O)c1CNC(C)=O [Compound I-11, N-(2,3,4-trihydroxy-6-propoxycarbonyl-benzyl) acetamide]	32.5%	55.5%	38.2%								
C=CC(=O)NCc1c(C(=O)OC)cc(O)c(O)c1O [Compound I-8, N-(2,3,4-trihydroxy-6-carbomethoxy-benzyl) acrylamide]	28.5%	54.8%	30.4%								
C=CC(=O)NCc1c(O)c(Br)c(O)c(CNC(=O)C=C)c1C(=O)O [Compound I-17]	95.8%	90.3%	91.5%	7.77 µM	3.05 µM	2.74 µM	8.6 µM	18 µM	3.01 µM	2.93 µM	IC50 [8, 14]: < 35.5 µM
Cc1c(C)c(CNC(=O)CCl)c(C)c(CNC(=O)CCl)c1O [Compound I-5, N-(2,3,6-trimethyl-4-hydroxy-5-chloroacetamidomethylbenzyl) chloroacetamide]	89.5%	95.3%	97.3%	6.32 µM	4.06 µM	5.32 µM	9.39 µM	6.93 µM	5.64 µM	3.74 µM	IC50 [8, 14]: < 35.5 µM; IC50 ([8]; upper bound over all 7 types of cells, compound I-5): < 9.4 µM
COc1cccc2c1C(=O)c1c(O)c3c(c(O)c1C2=O)C[C@@](O)(C(=O)CO)C[C@@H]3O[C@H]1C[C@H](N)[C@H](O)[C@H](C)O1 [doxorubicin, reference compound]											inhibition at 1 µM ([1]; doxorubicin 1 μM, read-out: Inhibition rate on A549): 88.8%; inhibition at 1 µM ([2]; doxorubicin 1 μM, read-out: Inhibition rate on HepG2): 78.1%; inhibition at 1 µM ([3]; HCT-116, doxorubicin 1 μM, 72 hours, read-out: Inhibition rate on HCT116): 60.9%; inhibition at 1 µM ([4]; doxorubicin 1 μM, read-out: Inhibition rate on HT-29): 95.3%; inhibition at 1 µM ([5]; doxorubicin 1 μM, read-out: Inhibition rate on K562): 40.8%; inhibition at 1 µM ([6]; doxorubicin 1 μM, read-out: Inhibition rate on hela): 44.3%; inhibition at 1 µM ([7]; MCF7, doxorubicin 1 μM, 72 hours, read-out: Inhibition rate on MCF-7): 69.1%
Cc1c(O)c(CNC(=O)CCl)cc(CNC(=O)CCl)c1O [Compound I-3, N-(2,4-dihydroxy-3-methyl-5-chloroacetamidomethylbenzyl) chloroacetamide]	95.9%	92.3%	76.5%	7.4 µM	6.04 µM	5.12 µM	10.7 µM	14.5 µM	9.3 µM	9.73 µM	IC50 [8, 14]: < 35.5 µM
CC(=O)NCc1c(O)c(O)c(O)c(CNC(C)=O)c1C(=O)O [Compound I-2, N-(2,3,4-trihydroxy-5-acetamidomethyl-6-carboxybenzyl) acetamide]	69.9%	18.4%	82%	4.84 µM	> 50 µM	> 50 µM	> 50 µM	> 50 µM	> 50 µM	> 50 µM	
C=CC(=O)NCc1c(C(=O)OCCC)cc(O)c(O)c1O [Compound I-9, N-(2,3,4-trihydroxy-6-propoxycarbonyl-benzyl) acrylamide]	27.5%	51.1%	29.1%								
C=CC(=O)NCc1cc(C(C)=O)c(O)c(CNC(=O)C=C)c1O [Compound I-16]	4.84%	13%	33.9%								
C=CC(=O)NCc1c(O)c(O)c(O)c(CNC(=O)C=C)c1C(=O)O [Compound I-1, N-(2,3,4-trihydroxy-5-acrylamidomethyl-6-carboxybenzyl) acrylamide]	89.3%	57.5%	92.3%	2.73 µM	8.31 µM	4.77 µM	16.6 µM	> 50 µM	23.8 µM	4.6 µM	average tumor volume at the end of the experiment ([9]; 5 times a week, 5-fu 20 mg/kg twice a week): 539.48 mm^3; inhibitory effect (inhibition rate of average tumor weight, FIG. 6) ([9]; 5-fu 20 mg/kg): 33.25%; inhibitory effect (inhibition rate of average tumor weight, FIG. 6) [10]: 35.13%
COC(=O)c1cc(O)c(O)c(O)c1CNC(C)=O [Compound I-10, N-(2,3,4-trihydroxy-6-carbomethoxy-benzyl) acetamide]	38.2%	55.8%	34.8%								
COC(=O)c1cc(O)c(O)c(O)c1CNC(=O)CCl [Compound I-12, N-(2,3,4-trihydroxy-6-carbomethoxy-benzyl) chloroacetamide]	40.9%	55.9%	47.6%								
